The record followed here is article PMC7393058, “Design, Synthesis, Molecular Modeling Study and Biological Evaluation of New N'-Arylidene-pyrido [2,3-d]pyrimidine-5-carbohydrazide Derivatives as Anti-HIV-1 Agents” (Iranian Journal of Pharmaceutical Research : IJPR, 2019).

Like-named read-outs stand apart in the source and are kept apart here. Where only a bound is given, the exact number is not on record here.

The test system of data set [1] is single cycle replicable HIV NL4-3. The experiment in a line: single-round replication assay, inhibition of p24 expression (capture ELISA) in Hela cells. The following applies: for SI=CC50/EC50: selectivity index, CC50/EC50 ratio. In kind it is cell-based, HIV-1. Here is the method:
(§1) The evaluation of inhibitory effect of synthesized compounds was performed by single-round replication assay which was evaluated in our laboratory and reported previously ([34]-[40]). Briefly, Hela cells (6 × 10^3 per well of 96-wells plate) were incubated with single cycle replicable HIV NL4-3 virions (200 ng p24) in the presence of various concentrations of compounds which were added concurrently with viral infection. The supernatants were collected 72 h postinfection and evaluated for p24 antigen load by capture ELISA (Biomerieux, France). Percentage inhibition of p24 expression in the treated culture was calculated as inhibition rate of p24 (%). The 50% effective concentration (EC50) was determined for each compound. XTT proliferation method was performed to evaluate the cellular toxicity of compounds. Toxicities of the compounds against the cells were quantified using XTT (sodium 3-[1 (phenyl aminocarbonyl)-3,4-tetrazolium]-bis(4-methoxy-6-nitro)benzene sulfonic acid) reagent, according to the kit instruction (Roche, Germany) ([41], [42]). Concentration which reduces proliferation of 50% of cells (CC50) was calculated subsequent to determination of p24 load. For EC50 and CC50 determinations, the compounds were tested at six concentrations ([…]) in triplicates.
(§2) All new synthesized compounds were evaluated for their activity against single cycle replicable HIV NL4-3 by determining their ability to inhibit p24 expression in Hela cell cultures. The well-known nucleoside RT inhibitor (AZT) was assayed in the same cells for comparative purpose. They all were then subjected to cell based XTT colorimetric assay for cytotoxicity to ensure that the anti-HIV-1 activity of the compounds was not a result of their cytotoxic effects ([43], [44]). The biological results are expressed as EC50, CC50, and SI (selectivity index, given by the CC50/EC50 ratio). […] When comparing the anti-HIV-1 activity of tested compounds, it appeared that the presence of substituents on benzylidene fragment confers better inhibition than the unsubstituted counterparts (compound 5a, EC50 >[…]).
On the technique in general: An ELISA detects its analyte on a solid surface through an enzyme-linked reagent.

Data set [2] in a line: XTT proliferation (cytotoxicity) assay. In kind it is cell-based, human. To be noted: human; XTT, Hela cells. Here is the method:
as §1, §2
Background: Formazan colour is commonly taken as a measure of viable cells.

The next data set deals with Hela cells. The data set is described as follows: XTT proliferation (cytotoxicity) assay. In kind it is cell-based, human. Here is the method: as §1, §2
Where [3] appears, read: Human immunodeficiency virus 1, NL43, HeLa, 72 h.

The EC50 is the midpoint of the concentration-response curve. The CC50 is the concentration at which the toxic effect on the cells reaches its halfway point. The term melting point denotes the temperature, or range, at which the solid turns liquid. For `Cn1c(=O)c2c(C(=O)NN=Cc3cccc(Cl)c3)cc(=O)[nH]c2n(C)c1=O` [Compound 5f, N’-(3-chlorobenzylidene)-1,3-dimethyl-2,4,7-trioxo-1,2,3,4,7,8-hexahydropyrido[2,3-d]pyrimidine-5-carbohydrazide], the melting point was 302 °C (dec.). The compound further came in with an EC50 in data set [1] (setting [3]) of 120 µM. In addition, the “SI=CC50/EC50” value in data set [1] was 3.75. The compound also came in with a CC50 at 72 h in data set [2] greater than 200 µM.

On to `Cn1c(=O)c2c(C(=O)NN=Cc3ccccc3Cl)cc(=O)[nH]c2n(C)c1=O` [Compound 5e, N’-(2-chlorobenzylidene)-1,3-dimethyl-2,4,7-trioxo-1,2,3,4,7,8-hexahydropyrido[2,3-d]pyrimidine-5-carbohydrazide], for which the melting point was 297 °C (dec.). Besides, the concentration for a half-maximal effect (EC50) in data set [1] (setting [3]) was 155 µM. The “SI=CC50/EC50” value in data set [1] amounted to 2.4. The compound also showed a CC50 at 72 h in data set [2] greater than 200 µM.

For `Cn1c(=O)c2c(C(=O)NN=Cc3ccc(Cl)cc3)cc(=O)[nH]c2n(C)c1=O` [Compound 5g, N’-(4-chlorobenzylidene)-1,3-dimethyl-2,4,7-trioxo-1,2,3,4,7,8-hexahydropyrido[2,3-d]pyrimidine-5-carbohydrazide], the melting point was 305 °C (dec.). The compound also gave a half-maximal effective concentration (EC50) in data set [1] (setting [3]) of 110 µM. In addition, in data set [1], the “SI=CC50/EC50” value was found to be 4.5. The CC50 at 72 h in data set [2] was greater than 200 µM.

For `Cc1ccc(C=NNC(=O)c2cc(=O)[nH]c3c2c(=O)n(C)c(=O)n3C)cc1` [Compound 5j, 1,3-Dimethyl-N’-(4-methylbenzylidene)-2,4,7-trioxo-1,2,3,4,7,8-hexahydropyrido[2,3-d]pyrimidine-5-carbohydrazide], the melting point is 284 °C (dec.). Also, the midpoint of the response in data set [1] (setting [3]), the EC50, lay at 90 µM. This compound also showed a cytotoxic concentration (CC50) at 72 h in data set [2] greater than 200 µM.

In the case of `Cc1cccc(C=NNC(=O)c2cc(=O)[nH]c3c2c(=O)n(C)c(=O)n3C)c1` [Compound 5i, 1,3-Dimethyl-N’-(3-methylbenzylidene)-2,4,7-trioxo-1,2,3,4,7,8-hexahydropyrido[2,3-d]pyrimidine-5-carbohydrazide], the melting point was 280 °C (dec.). The compound further gave a half-maximal effective concentration (EC50) in data set [1] (setting [3]) of 125 µM. In addition, in data set [1], the “SI=CC50/EC50” value amounted to 4.8. The compound further showed a CC50 at 72 h in data set [2] greater than 200 µM.

On to `Cn1c(=O)c2c(C(=O)NN=Cc3ccccc3)cc(=O)[nH]c2n(C)c1=O` [Compound 5a, N’-benzylidene-1,3-dimethyl-2,4,7-trioxo-1,2,3,4,7,8-hexahydropyrido[2,3-d]pyrimidine-5-carbohydrazide], for which the melting point is 286 °C (dec.). Moreover, the EC50 in data set [1] (setting [3]) is greater than 200 µM. Also, in data set [1], the “SI=CC50/EC50” value is given as 1.2. Further, in data set [2], the CC50 at 72 h is greater than 200 µM.

For the compound `COc1ccc(C=NNC(=O)c2cc(=O)[nH]c3c2c(=O)n(C)c(=O)n3C)cc1` [Compound 5d, N’-(4-methoxybenzylidene)-1,3-dimethyl-2,4,7-trioxo-1,2,3,4,7,8-hexahydropyrido[2,3-d]pyrimidine-5-carbohydrazide], the melting point was 231 °C (dec.). The half-maximal effective concentration (EC50) in data set [1] (setting [3]) is 140 µM. In addition, in data set [1], the “SI=CC50/EC50” value is listed as 1.3. For the same compound, in data set [2], the 50% cytotoxic concentration (CC50) at 72 h worked out at 185 µM.

For `Cn1c(=O)c2c(C(=O)NN=Cc3ccc(F)cc3)cc(=O)[nH]c2n(C)c1=O`, the melting point was in the range of 220.7 to 221.3 °C.

As to `Cn1c(=O)c2c(C(=O)NN=Cc3cccc(F)c3)cc(=O)[nH]c2n(C)c1=O` [Compound 5k, N’-(3-fluorobenzylidene)-1,3-dimethyl-2,4,7-trioxo-1,2,3,4,7,8-hexahydropyrido[2,3-d]pyrimidine-5-carbohydrazide], the melting point was 287 °C (dec.). Further, the midpoint of the response in data set [1] (setting [3]), the EC50, lay at 140 µM. In addition, the “SI=CC50/EC50” value in data set [1] came to 2.7. The CC50 at 72 h in data set [2] is greater than 200 µM.

As to `COc1cccc(C=NNC(=O)c2cc(=O)[nH]c3c2c(=O)n(C)c(=O)n3C)c1` [Compound 5c, N’-(3-methoxybenzylidene)-1,3-dimethyl-2,4,7-trioxo-1,2,3,4,7,8-hexahydropyrido[2,3-d]pyrimidine-5-carbohydrazide], the melting point was 231 °C (dec.). This compound also displayed a concentration giving a half-maximal response (EC50) in data set [1] (setting [3]) of 180 µM. Moreover, in data set [1], the “SI=CC50/EC50” value was 1.1. In addition, in data set [2], the CC50 at 72 h is greater than 200 µM.

On to `Cc1ccccc1C=NNC(=O)c1cc(=O)[nH]c2c1c(=O)n(C)c(=O)n2C`, for which the melting point was 277 °C (dec.).

Turning to `Cc1cn([C@H]2C[C@H](N=[N+]=[N-])[C@@H](CO)O2)c(=O)[nH]c1=O` [AZT, reference compound], the 50% effective concentration (EC50) in data set [1] (inhibition of p24 expression, Hela cells, 72 h postinfection, triplicates, read-out: EC50) stood at 0.018 µM. This compound also yielded a half-maximal cytotoxic concentration (CC50) with Hela cells greater than 200 µM.

With `COc1ccccc1C=NNC(=O)c1cc(=O)[nH]c2c1c(=O)n(C)c(=O)n2C` [Compound 5b, N’-(2-methoxybenzylidene)-1,3-dimethyl-2,4,7-trioxo-1,2,3,4,7,8-hexahydropyrido[2,3-d]pyrimidine-5-carbohydrazide], the melting point is 231 °C (dec.). In addition, the 50% effective concentration (EC50) in data set [1] (setting [3]) was 120 µM. Moreover, the “SI=CC50/EC50” value in data set [1] is recorded as 3.75. The same compound yielded a cytotoxic concentration (CC50) at 72 h in data set [2] greater than 200 µM.
